# Measured values taken from patent US20080305186A1, “Method and Composition for the Treatment of Cardiac Hypertrophy” (BOARD OF REGENTS, THE UNIVERSITY OF TEXAS SYSTEM, priority 2007, published 2008).
# Test system: cardiac gene expression
# Experiment: Microarray analysis of cardiac gene expression (GeneChip Mouse Genome 430 2.0)
# Assay type: in vivo, mice
# Method: Microarray Sample Preparation and Analysis. Animal hearts were rapidly removed, and the atria and right ventricles were cut and immediately plunged into TRIzol Reagent (Life Technologies). Total RNA was isolated following the manufacturer's instructions, purified by phenol-chloroform extraction and then ethanol precipitation, and 20 μg further processed for microarray analysis. Briefly, cDNA synthesis, in vitro transcription, and labeling and fragmentation to produce the oligonucleotide probes were performed as instructed by the GeneChip manufacturer (Affymetrix). The probes were first hybridized to a test array (Affymetrix) and then to the GeneChip Mouse Genome 430 2.0 Array, using the GeneChip Hybridization Oven 640. The chips were washed in a GeneChip Fluidics Station 450 (Affymetrix), and the results were visualized with a GeneChip G7 scanner (Affymetrix). RMA normalization, pairwise comparisons, Student's t test and Benjamini and Hochberg correction were subsequently performed using GeneSifter (VizX Labs, Seattle, Wash.) and Spotfire DecisionSite 8.3 (Spotfire, Inc., Somerville, Mass.).
# Effects on Gene Expression Profile. […] One mouse heart was used for each array, and was performed in triplicate, generating a total of 12 arrays. GeneSifter was used to perform RMA normalization, pairwise comparisons of averaged signal intensity values, and Student's t-test with Benjamini and Hochberg correction, and Spotfire was used to perform pairwise comparisons. […] Additionally, genes that were altered between any two N or cardiac hypertrophy samples were removed, as these alterations most likely represented normal variations between mice.
smiles,measurement,setting,value
C[C@H]1c2cccc(O)c2C(=O)C2=C(O)[C@]3(O)C(=O)C(C(N)=O)=C(O)[C@@H](N(C)C)[C@@H]3[C@@H](O)[C@@H]21 [doxycycline],FC Tubulointerstitial nephritis antigen-like (Tinagl),"GenBank BC005738, heart, drug + isoproterenol vs isoproterenol-only mice, CH vs normal FC 2.1",−1.8 fold
same,FC Tubulin alpha (Tuba2),"GenBank BC008117, heart, drug + isoproterenol vs isoproterenol-only mice, CH vs normal FC −2.7",4.1 fold
same,FC Intercellular adhesion molecule (Icam1),"GenBank BC008626, vs mice given only isoproterenol",−2.7
same,FC Similar to serine protease inhibitor-2 related sequee 1 (Serpina3m),"GenBank BC011158, vs mice given only isoproterenol",−2.4
same,FC Phosphatidylinositol binding clathrin assembly protein (Picalm),"GenBank BC011470, vs mice given only isoproterenol",−1.5
same,FC Isochorismatase domain containing 1 (Isoc1),"GenBank BC016576, vs mice given only isoproterenol",2.8
same,"FC EGF, latrophilin seven transmembrane domain containing 1 (Eltd1)","GenBank BC017134, vs mice given only isoproterenol",−2.0
same,"FC Ras homolog gene family, member B (RhoB)","GenBank BC018275, vs mice given only isoproterenol",−2.1
same,FC D site albumin promoter binding protein (Dbp),"GenBank BC018323, vs mice given only isoproterenol",10.2
same,FC RAD52 homolog (S. cerevisiae) (Rad52),"GenBank BC019123, vs mice given only isoproterenol",−1.8
same,FC Leucine-rich repeat-containing 3b (Lrrc3b),"GenBank BC019794, vs mice given only isoproterenol",1.9
same,"FC Solute carrier family 45, member 3 (Slc45a3)","GenBank BC024519, vs mice given only isoproterenol",−1.8
same,FC Rho GTPase activating protein 24 (Arhgap24),"GenBank BC025502, vs mice given only isoproterenol",−1.8
same,FC Motile sperm domain containing 2 (Mospd),"GenBank BC026425, vs mice given only isoproterenol",−1.7
same,FC Similar to metallothionein 1 (Mt1),"GenBank BC027262, vs mice given only isoproterenol",−2.7
same,FC Guanine deaminase (Gda),"GenBank BE136057, vs mice given only isoproterenol",−1.7
same,FC EST,"GenBank BE553782, vs mice given only isoproterenol",−1.6
same,FC EST,"GenBank BE630303, vs mice given only isoproterenol",−1.8
same,FC ESTs,"GenBank BE630363, vs mice given only isoproterenol",−3.1
same,FC ESTs,"GenBank BE685667, vs mice given only isoproterenol",−3.2
same,FC EST,"GenBank BE687858, vs mice given only isoproterenol",−1.5
same,FC EST,"GenBank BE852759, vs mice given only isoproterenol",1.7
same,FC Retinoblastoma binding protein 4 (Rbbp4),"GenBank BF011461, vs mice given only isoproterenol",2.1
same,FC Methyl-CpG binding domain protein 1 (Mbd1),"GenBank BF121558, vs mice given only isoproterenol",−1.8
same,FC SET translocation (Set),"GenBank BF134272, vs mice given only isoproterenol",2.0
same,FC Protein tyrosine phosphatase 4a1 (Ptp4a1),"GenBank BF179910, vs mice given only isoproterenol",−1.9
same,"FC Potassium channel, subfamily K, member 3 (Kcnk3)","GenBank BF467278, vs mice given only isoproterenol",3.9
same,FC Smoothelin (Smtn),"GenBank BF578669, vs mice given only isoproterenol",1.5
same,FC EST,"GenBank BF780807, vs mice given only isoproterenol",−1.9
same,FC ESTs,"GenBank BG067678, vs mice given only isoproterenol",2.6
same,FC EST,"GenBank BG068705, vs mice given only isoproterenol",−1.7
same,FC SET domain containing (lysine methyltransferase) 8)Setd8),"GenBank BG069700, vs mice given only isoproterenol",1.9
same,FC Neuronal PAS domain protein 2 (Npas2),"GenBank BG070037, vs mice given only isoproterenol",−2.6
same,"FC Pleckstrin homology domain containing, family G (with RhoGef domain) member 1 (Plekhg1)","GenBank BG073502, vs mice given only isoproterenol",−2.0
same,FC Microtubule-actin crosslinking factor 1 (Macf1),"GenBank BG074706, vs mice given only isoproterenol",2.7
same,FC Insulin-like growth factor 1 (Igf1),"GenBank BG075165, vs mice given only isoproterenol",2.3
same,FC p53 regulated PA26 nuclear protein (Sestrin 1) (Sesn1),"GenBank BG076140, 1st listing, vs mice given only isoproterenol",−2.9
same,FC p53 regulated PA26 nuclear protein (Sestrin 1) (Sesn1),"GenBank BG076140, 2nd listing, vs mice given only isoproterenol",−3.5
same,FC EST,"GenBank BG092512, vs mice given only isoproterenol",−2.9
same,"FC Transforming growth factor, beta receptor II (Tgfbr2)","GenBank BG793483, heart, drug + isoproterenol vs isoproterenol-only mice, CH vs normal FC 2.4",−2.3 fold
same,FC Restin-like 2 (Rsnl2),"GenBank BG916957, vs mice given only isoproterenol",1.9
same,FC mVL30-1 retroelement,"GenBank BI076714, vs mice given only isoproterenol",−2.1
same,FC Methylcrotonoyl-Coenzyme A carboxylase 2 (beta) (Mccc2),"GenBank BI155184, vs mice given only isoproterenol",1.7
same,"FC Transforming, acidic coiled-coil containing protein 2 (Tacc2)","GenBank BI466416, heart, drug + isoproterenol vs isoproterenol-only mice, CH vs normal FC 2.6",−2.5 fold
same,FC PHD finger protein 15 (Phf15),"GenBank BI663145, vs mice given only isoproterenol",−2.1
same,FC Tissue inhibitor of metalloproteinase 4 (Timp4),"GenBank BI788452, heart, drug + isoproterenol vs isoproterenol-only mice, CH vs normal FC 3.2",−3.1 fold
same,FC Zi finger and BTB domain containing 16 (Zbtb16),"GenBank BM115255, heart, drug + isoproterenol vs isoproterenol-only mice, CH vs normal FC 7.5",−1.6 fold
same,"FC GTL2, imprinted maternally expressed untranslated mRNA (Gtl2)","GenBank BM119226, vs mice given only isoproterenol",1.7
same,FC Ectodermal-neural cortex 1 (E1),"GenBank BM120053, 1st listing, vs mice given only isoproterenol",−2.0
same,FC Ectodermal-neural cortex 1 (E1),"GenBank BM120053, 2nd listing, vs mice given only isoproterenol",−1.9
same,FC Pellino 2(peli2),"GenBank BM121149, vs mice given only isoproterenol",−1.9
same,FC REST corepressor 1 (Rcor1),"GenBank BM194994, vs mice given only isoproterenol",3.3
same,FC EST,"GenBank BM219553, vs mice given only isoproterenol",−2.6
same,FC Phospholipase D1 (Pld1),"GenBank BM228590, 1st listing, vs mice given only isoproterenol",−2.0
same,FC Phospholipase D1 (Pld1),"GenBank BM228590, 2nd listing, vs mice given only isoproterenol",−1.6
same,FC SET translocation (Set),"GenBank BM229104, vs mice given only isoproterenol",2.0
same,FC p53 regulated PA26 nuclear protein (Sestrin 1) (Sesn1),"GenBank BM237933, vs mice given only isoproterenol",−2.4
same,FC Macrophage activation 2 (Mpa21),"GenBank BM241485, vs mice given only isoproterenol",−3.6
same,FC Prohibitin (Phb),"GenBank BM243379, vs mice given only isoproterenol",−2.1
same,FC Serine iorporator 3 (Seri3),"GenBank BM244064, vs mice given only isoproterenol",−1.8
